# Structures can show the parent of a compound that is named as a salt.
# What was measured:
# Format in all cases: physicochemical
# [1] = Thermal stability in a solid state, acceleration test at 60° C. (HPLC content)
# Protocol: High Performance Liquid Chromatography (HPLC) analysis was conducted under the following conditions:
# Detector: UV absorption (237 nm)
# Column: Octadesyl silica gel C18 (4.6 mm×150 mm, 5 μm)
# Mobile phase: Potassium dihydrogen phosphate monobasic (0.03 M): Methanol=4:6 (by volume)
# [2] = Evaluation of hygroscopicity: water content by Karl Fisher method under various humidity conditions; settings: 25° C.
# [3] = Stability in a liquid state (distilled water, 25° C., 4 weeks, protected from light); settings: dissolved in distilled water, 4 weeks at 25° C.
# Excerpt: The observation was made under the same conditions as in the HPLC analysis for evaluating the thermal stability of samples in a solid state.
# [4] = Evaluation of photostability (exposed to sunlight at 25° C. for 4 weeks, HPLC content); settings: for Content (HPLC): stored at 25° C. for 4 weeks with light exposure; for Colour of the surface after exposure to light: white at initial stage, exposed to sunlight at 25° C., 4 weeks
# Protocol: To evaluate photostability, a change in the content (%, HPLC) of each sample was observed under the same HPLC analysis conditions as in the evaluation of thermal stability. Photostability is quite an important factor in therapeutic agents for treating hypertension because they are administered to patients over a prolonged period of dosage.
smiles,measurement,setting,value
"CCOC(=O)C1=C(COCCN)NC(C)=C(C(=O)OC)C1c1ccccc1Cl (stereo not drawn) [Besylate salt, Amlodipine Besylate, reference compound]",Content (HPLC),"[1]; 60° C., 1 week",99.6%
same,Content (HPLC),[1]; initial stage,99.6%
same,Water content (Karl Fisher method),[2]; initial stage,0.14%
same,Water content (Karl Fisher method),"[2]; relative humidity 25%, 1 week",0.10%
same,Water content (Karl Fisher method),"[2]; relative humidity 60%, 1 week",0.09%
same,Water content (Karl Fisher method),"[2]; relative humidity 75%, 1 week",0.15%
same,Water content (Karl Fisher method),"[2]; relative humidity 95%, 1 week",0.17%
same,Change in the content (HPLC),[3],no significant changes in the content
same,Decomposed products,[3],no decomposed products
same,Content (HPLC),[4],82.5%
same,Colour of the surface after exposure to light,[4],turned yellow
"CCOC(=O)C1=C(COCCN)NC(C)=C(C(=O)OC)C1c1ccccc1Cl (stereo not drawn) [Adipic acid salt, crystalline adipic acid salt of amlodipine]",Content (HPLC),"[1]; 60° C., 1 week",99.8%
same,Content (HPLC),"[1]; 60° C., 2 weeks",99.7%
same,Content (HPLC),"[1]; 60° C., 4 weeks",99.7%
same,Content (HPLC),[1]; initial stage,99.8%
same,Water content (Karl Fisher method),[2]; initial stage,0.10%
same,Water content (Karl Fisher method),"[2]; relative humidity 25%, 1 week",0.10%
same,Water content (Karl Fisher method),"[2]; relative humidity 60%, 1 week",0.10%
same,Water content (Karl Fisher method),"[2]; relative humidity 75%, 1 week",0.14%
same,Water content (Karl Fisher method),"[2]; relative humidity 95%, 1 week",0.16%
same,Change in the content (HPLC),[3],no significant changes in the content
same,Decomposed products,[3],no decomposed products
same,Colour of the surface after exposure to light,[4],remained white
"CCOC(=O)C1=C(COCCN)NC(C)=C(C(=O)OC)C1c1ccccc1Cl (stereo not drawn) [Tosylate salt, Amlodipine p-Toluene Sulfonate]",Content (HPLC),[4],72.0%

# Reference: patent publication US7015238B2, “Crystalline organic acid salt of amlodipine” (CJ Corp., priority 2002, dated 2006)
